One may read the EC50 as the concentration needed to bring the measured effect to its halfway point.

Structures are written as SMILES.

These results are taken from patent publication US9321809B2, “Macrocyclic compounds for suppressing replication of hepatitis C virus” (Ginkgo Pharma Co., Ltd., priority 2012, dated 2016).

The assay deals with HCV replicon-containing huh-7 cells (replicon 1b). Briefly: HCV Replicon Assay (luciferase readout). The class given is cell-based. Particulars: Hepatitis C virus; HCV replicon 1b in huh-7 cells, 48 h incubation, 1% DMSO, luciferase signal; read-out: EC50 (EC 50 on replicon 1b). The method, then:
Compounds of formuala (I) are tested for the ability to inhibit viral replication of the Hepatitis C viruses by the following in vitro assays.
DMEM (Life Technologies #41965-039) was supplemented with 10% FBS, 2 mM L-glutamine (Life Technologies #25030-024), penicillin (100 units/ml)/streptomycin (100 micrograms/ml) (Life Technologies #15140-114), 1× non-essential amino acids (Life Technologies #11140-035).
Complete media was prepared by mixing FBS, DMEM media with Geneticin (G418). The compete media was preincubated at 37° C. in a CO2 incubator. Then, HCV replicon-containing huh-7 cells (V. Lohmann et. al. Science, 285, (1999)110-113) was taken out from 37° C. incubator. The residual medium was absorbed, and the cells were washed with PBS. After washing fluid was removed, 1 ml 0.25% trypsin/0.02% EDTA solution. The cells were washed by the above trypsin/EDTA solution to make sure that each cell was cleaned. After the trypsin/EDTA solution was absorbed, the mixture was incubated at 37° C. in a CO2 incubator for 3-5 minutes. Morphological changes were observed by inverted microscope, till the cells were detached from the wall of container completely.
3 ml of complete media was added to make the cells to suspend. The cells are counted with hematometer. Appropriate volumes of the complete media was added to adjust the cell density to 100,000/ml. Cells were plated with 100 μl of suspension at 10,000/well of 96 well plate. Plates were placed into 37° C. 5% CO2 incubator for 24 h.
Preparation of Drug Solution:
Drugs were diluted under aseptic conditions.
Stock solutions may be prepared before the assay, which means that the test compounds are dissolved in 100% DMSO to afford a final concentration of 2 mM. Before the 96 well culture was completed, the stock solution was diluted with culter media to 100 fold of the final concentration (100× solution).
96-well plates were taken out from 37° C. CO2 incubator and morphological changes were observed by inverted microscope. In a ventilator, 1 μl of 100× drug solution was added to wells of 96 well plate until the final concentration of DMSO in the mixture is 1%. The plates were incubated at 37° C. in a CO2 environment for 48 h. 30 μl of Stead-G1® Luciferase Assay System (bought from Promega) was added to each well of 96 well plates and each plate is shaken in a plate shaker for 5 minutes to ensure cells cleavaged completely. The fluorescence signal was quantitated in a Perkin-Elmer plate reader (Envision) and integral time was setted to be 2 second. The following data were achieved after recording and analyzing the data.
In general terms: A replicon is a self-replicating genome or part of one, used to study replication in cells.
For `CC[C@@H]1C[C@]1(NC(=O)[C@@H]1C[C@@H]2CN1C(=O)[C@H](C1CCCCC1)NC(=O)[C@@H](NC(=O)OC(C)(C)C)COC/C=C/c1cccc3c1CN(C3)C(=O)O2)C(=O)NS(=O)(=O)C1CC1` [Compound IIa-19, tert-butyl N-[(1R,12E,17S,20S,23S)-20-cyclohexyl-23-{[(1R,2R)-1-[(cyclopropanesulfonyl)carbamoyl]-2-ethylcyclopropyl]carbamoyl}-3,18,21-trioxo-2,15-dioxa-4,19,22-triazatetracyclo[20.2.1.1^4,7.0^6,11]hexacosa-6,8,10,12-tetraen-17-yl]carbamate], the EC50 is under 0.01 µM.
Regarding `C=C[C@@H]1C[C@]1(NC(=O)[C@@H]1C[C@@H]2CN1C(=O)[C@H](C(C)(C)C)NC(=O)[C@@H](NC(=O)OC1CCCC1)COC/C=C/c1cccc3c1CN(C3)C(=O)O2)C(=O)NS(=O)(=O)C1CC1` [Compound IIa-11, cyclopentyl N-[(1R,12E,17S,20S,23S)-20-tert-butyl-23-{[(1R,2S)-1-[(cyclopropanesulfonyl)carbamoyl]-2-ethenylcyclopropyl]carbamoyl}-3,18,21-trioxo-2,15-dioxa-4,19,22-triazatetracyclo[20.2.1.1^4,7.0^6,11]hexacosa-6,8,10,12-tetraen-17-yl]carbamate], the EC50 is under 0.01 µM.
`C=C[C@@H]1C[C@]1(NC(=O)[C@@H]1C[C@@H]2CN1C(=O)[C@H](C(C)(C)C)NC(=O)[C@@H](NC(=O)NC(C)(C)C)COC/C=C/c1cccc3c1CN(C3)C(=O)O2)C(=O)NS(=O)(=O)C1CC1` [Compound IIa-12, (1R,12E,17S,20S,23S)-20-tert-butyl-17-[(tert-butylcarbamoyl)amino]-N-[(1R,2S)-1-[(cyclopropanesulfonyl)carbamoyl]-2-ethenylcyclopropyl]-3,18,21-trioxo-2,15-dioxa-4,19,22-triazatetracyclo[20.2.1.1^4,7.0^6,11]hexacosa-6,8,10,12-tetraene-23-carboxamide]: the EC50 was under 0.01 µM.
Then `C=C[C@@H]1C[C@]1(NC(=O)[C@@H]1C[C@@H]2CN1C(=O)[C@H](C(C)(C)C)NC(=O)[C@H](N)COC/C=C/c1cccc3c1CN(C3)C(=O)O2)C(=O)NS(=O)(=O)C1CC1` [Compound IIa-4, (1R,12E,17R,20S,23S)-17-amino-20-tert-butyl-N-[(1R,2S)-1-[(cyclopropanesulfonyl)carbamoyl]-2-ethenylcyclopropyl]-3,18,21-trioxo-2,15-dioxa-4,19,22-triazatetracyclo[20.2.1.1^4,7.0^6,11]hexacosa-6,8,10,12-tetraene-23-carboxamide], with 0.5 to 20 µM; and `C=C[C@@H]1C[C@]1(NC(=O)[C@@H]1C[C@@H]2CN1C(=O)[C@H](C(C)(C)C)NC(=O)[C@@H](NC(C)=O)COC/C=C/c1cccc3c1CN(C3)C(=O)O2)C(=O)NS(=O)(=O)C1CC1` [Compound IIa-7, (1R,12E,17S,20S,23S)-20-tert-butyl-N-[(1R,2S)-1-[(cyclopropanesulfonyl)carbamoyl]-2-ethenylcyclopropyl]-17-acetamido-3,18,21-trioxo-2,15-dioxa-4,19,22-triazatetracyclo[20.2.1.1^4,7.0^6,11]hexacosa-6,8,10,12-tetraene-23-carboxamide], with 0.05 to 0.5 µM; and `C=C[C@@H]1C[C@]1(NC(=O)[C@@H]1C[C@@H]2CN1C(=O)[C@H](C(C)(C)C)NC(=O)[C@@H](NC(=O)OCc1ccccc1)COC/C=C/c1cccc3c1CN(C3)C(=O)O2)C(=O)NS(=O)(=O)C1CC1` [Compound IIa-10, benzyl N-[(1R,12E,17S,20S,23S)-20-tert-butyl-23-{[(1R,2S)-1-[(cyclopropanesulfonyl)carbamoyl]-2-ethenylcyclopropyl]carbamoyl}-3,18,21-trioxo-2,15-dioxa-4,19,22-triazatetracyclo[20.2.1.1^4,7.0^6,11]hexacosa-6,8,10,12-tetraen-17-yl]carbamate], with under 0.01 µM.
With `CC[C@@H]1C[C@]1(NC(=O)[C@@H]1C[C@@H]2CN1C(=O)[C@H](C(C)(C)C)NC(=O)[C@@H](NC(=O)OC(C)(C)C)COCCCc1cccc3c1CN(C3)C(=O)O2)C(=O)NS(=O)(=O)C1CC1` [Compound IIa-14, tert-butyl N-[(1R,17S,20S,23S)-20-tert-butyl-23-{[(1R,2R)-1-[(cyclopropanesulfonyl)carbamoyl]-2-ethylcyclopropyl]carbamoyl}-3,18,21-trioxo-2,15-dioxa-4,19,22-triazatetracyclo[20.2.1.1^4,7.0^6,11]hexacosa-6,8,10-trien-17-yl]carbamate] the figure was 0.05 to 0.5 µM; with `C=C[C@@H]1C[C@]1(NC(=O)[C@@H]1C[C@@H]2CN1C(=O)[C@H](C1CCCCC1)NC(=O)[C@@H](NC(=O)OC(C)(C)C)COCCCc1cc3c(nccc3cc1OC)O2)C(=O)NS(=O)(=O)C1CC1` [Compound IIb-4, tert-butyl N-[(3R,5S,8S,11S)-8-cyclohexyl-5-{[(1R,2S)-1-[(cyclopropanesulfonyl)carbamoyl]-2-ethenylcyclopropyl]carbamoyl}-18-methoxy-7,10-dioxo-2,13-dioxa-6,9,23-triazatetracyclo[15.6.2.1^3,6.0^20,24]hexacosa-1(23),17(25),18,20(24),21-pentaen-11-yl]carbamate], under 0.01 µM.
Then `CC[C@@H]1C[C@]1(NC(=O)[C@@H]1C[C@@H]2CN1C(=O)[C@H](C(C)(C)C)NC(=O)[C@@H](NC(=O)OC(C)(C)C)COC/C=C/c1cccc3c1CN(C3)C(=O)O2)C(=O)NS(=O)(=O)C1CC1` [Compound IIa-15, tert-butyl N-[(1R,12E,17S,20S,23S)-20-tert-butyl-23-{[(1R,2R)-1-[(cyclopropanesulfonyl)carbamoyl]-2-ethylcyclopropyl]carbamoyl}-3,18,21-trioxo-2,15-dioxa-4,19,22-triazatetracyclo[20.2.1.1^4,7.0^6,11]hexacosa-6,8,10,12-tetraen-17-yl]carbamate], with under 0.01 µM; and `C=C[C@@H]1C[C@]1(NC(=O)[C@@H]1C[C@@H]2CN1C(=O)[C@H](C(C)(C)C)NC(=O)[C@H](NC(=O)c1cnccn1)COC/C=C/c1cccc3c1CN(C3)C(=O)O2)C(=O)NS(=O)(=O)C1CC1` [Compound IIa-6, (1R,12E,17R,20S,23S)-20-tert-butyl-23-N-[(1R,2S)-1-[(cyclopropanesulfonyl)carbamoyl]-2-ethenylcyclopropyl]-3,18,21-trioxo-17-C-pyrazine-2-2,15-dioxa-4,19,22-triazatetracyclo[20.2.1.1^4,7.0^6,11]hexacosa-6,8,10,12-tetraene-17,23-diamido], with 0.05 to 0.5 µM; and `CCC1C[C@]1(NC(=O)[C@@H]1C[C@@H]2CN1C(=O)[C@H](C1CCCCC1)NC(=O)[C@@H](NC(=O)OC(C)(C)C)COCCCc1cc3c(nccc3cc1OC)O2)C(=O)NS(=O)(=O)C1CC1` (stereo in doubt) [Compound IIb-6, tert-butyl N-[(3R,5S,8S,11S)-8-cyclohexyl-5-{[(1R,2S)-1-[(cyclopropanesulfonyl)carbamoyl]-2-ethylcyclopropyl]carbamoyl}-18-methoxy-7,10-dioxo-2,13-dioxa-6,9,23-triazatetracyclo[15.6.2.1^3,6.0^20,24]hexacosa-1(23),17(25),18,20(24),21-pentaen-11-yl]carbamate], with 0.05 to 0.5 µM.
For the compound `C=C[C@@H]1C[C@]1(NC(=O)[C@@H]1C[C@@H]2CN1C(=O)[C@H](C(C)(C)C)NC(=O)[C@@H](NC(=O)OC(C)(C)C)CSC/C=C/c1cccc3c1CN(C3)C(=O)O2)C(=O)NS(=O)(=O)C1CC1` [Compound IIa-21, tert-butyl N-[(1R,12E,17R,20S,23S)-20-tert-butyl-23-{[(1R,2S)-1-[(cyclopropanesulfonyl)carbamoyl]-2-ethenylcyclopropyl]carbamoyl}-3,18,21-trioxo-2-oxa-15-thia-4,19,22-triazatetracyclo[20.2.1.1^4,7.0^6,11]hexacosa-6,8,10,12-tetraen-17-yl]carbamate], the 50% effective concentration (EC50) was 0.01 to 0.05 µM.
On to `C=C[C@@H]1C[C@]1(NC(=O)[C@@H]1C[C@@H]2CN1C(=O)[C@H](C(C)(C)C)NC(=O)[C@@H](NC(=O)OC(C)(C)C)COCCCc1cccc3c1CN(C3)C(=O)O2)C(=O)NS(=O)(=O)C1CC1` [Compound IIa-13, tert-butyl N-[(1R,17S,20S,23S)-20-tert-butyl-23-{[(1R,2S)-1-[(cyclopropanesulfonyl)carbamoyl]-2-ethenylcyclopropyl]carbamoyl}-3,18,21-trioxo-2,15-dioxa-4,19,22-triazatetracyclo[20.2.1.1^4,7.0^6,11]hexacosa-6,8,10-trien-17-yl]carbamate], for which the EC50 lay in the range of 0.01 to 0.05 µM.
